Measured values taken from US20080311103A1, “Anti-Inflammatory Peptides and Methods of Use Thereof” (YEDA RESEARCH AND DEVELOPMENT CO. LTD. at THE WEIZMANN …, priority 2004, published 2008).

Assays:
[1] = test system: mice sensitized with oxazolone; assay type: in vivo, mouse; settings: FIG. 1; peptides by implanted osmotic pump, 0.2 μg/hour for 7 days; ear measured 24 hours after oxazolone challenge; BALB/c mice
Experimental: Groups of 5 female inbred BALB/c mice (The Jackson Laboratory, Bar Harbor, Me.) were sensitized on the shaved abdominal skin with 2% oxazolone (100 μl) dissolved in acetone/olive oil [4:1 (vol/vol)] applied topically. Delayed type hypersensitivity (DTH) was elicited 5 days later by challenging the mice with 0.5% oxazolone in acetone/olive oil (10 μl given topically to each side of the ear). A constant area of the ear was measured immediately before and 24 hours after the challenge using a Mitutoyo engineer's micrometer. The percent inhibition of DTH is calculated as follows:
% Inhibition=[1-{(treated−negative control)/(positive control−negative control)}]×100.
The positive control is the DTH reaction to oxazolone elicited in sensitized mice without treatment. The negative control is the background swelling produced by the oxazolone antigen in naïve non-sensitized mice.
Peptides Nos. 1-5 were given to the mice by mini perfusion pumps (alzet osmotic pump model 2001), which contained the indicated peptide (40 μg; 200 μl). The pumps were implanted under the mouse skin one day before oxazolone sensitization and they released the peptide in a rate of 1 μl per hour (0.2 μg/hour) for 7 days.
Peptides Nos. 6-10 were given to the mice by subcutaneously injection (1 μg or 10 μg per mouse), every day, starting at one day before oxazolone sensitization and ending at day 5 post DTH initiation.

[2] = test system: T cells; test: Chemotaxis assay: T cell migration toward SDF-1α; assay type: cell-based; settings: concentration range 10-1000 ng/ml; SDF-1α 250 ng/ml; 3 hr
Experimental: The migration of ^51-[Cr]-labeled T cells was examined in […] Transwell chemotaxis apparatus (6.5-mm diameter; Corning, N.Y.), consisting of two compartments separated by polycarbonate filters (5 μm pore size) pretreated (1 hr, 37° C.) with FN (25 μg/ml). ^51-[Cr]-labeled T cells (2×10^5 in 100 μl of RPMI containing 0.1% BSA and antibiotics), which were pre-incubated with the indicated concentrations of peptides (30 min, 37° C.), were added to the upper chambers. The bottom chambers contained 0.6 ml of the same media, with or without human Stromal cell-Derived Factor-1α (SDF-1α; 250 ng/ml). After incubation at 37° C. for 3 hr (7.5% CO2-humidified atmosphere), cells that had transmigrated into the lower wells were collected, centrifuged, and lysed (in 100 μl of distilled water containing 1 M NaOH and 0.1% Triton X-100), and the radioactivity in the resulting supernatants was determined with a γ-counter. The percentage (±SD) of cell migration was calculated as the radioactivity counts in the lysates of the lower chambers (representative of the migrating cells) divided by the total counts (representative of 2×10^5 cells).

[3] = test system: Jurkat and THP-1 cells; test: TNFα secretion by PMA/PHA induced Jurkat and THP-1 cells; assay type: cell-based, human; settings: peptide 1 μg/ml; 48 hours; ELISA
Experimental: Jurkat cells human T cell lymphoma line) (2×10^6 cells/ml) cultured in RPMI-1640 supplemented with 10% FCS were activated with PMA (50 ng/ml) and phytohaemagglutinin PHA (4 µg/ml) for 6 hours at 37° C. (7.5% CO2-humidified atmosphere). Thereafter, the cells were washed, plated on 24-well plates (10^6 cells/well in 0.5 ml), and incubated (1 hour at 37° C., 7.5% CO2-humidified atmosphere) with the indicated concentrations of peptides 1-5. Following the incubation, THP-1 cells (human monocytic cell line derived from a patient with acute monocytic leukaemia; 1.25×10^5 cells/0.5 ml/well) were added to the wells. After 48 hours, the supernatants were collected and their TNF[…] content was determined by ELISA using anti TNF[…] mAb (Pharmingen; San Diego, Calif.) according to the manufacturer's instructions.

[4] = test system: anti-CD3 antibody induced TNFα secretion from T cells; test: TNFα secretion by anti-CD3 activated T cells; assay type: cell-based, human; settings: peptide 100 ng/ml; 24 hours; ELISA; FIG. 7A
Experimental: (§1) Human T cells were purified and maintained in culture (RPMI containing 10% FCS, 1% Pyruvate, 1% glutamine, 1% antibiotics, 7.5% CO2, humidified atmosphere) for 15 hr before they were transferred to RPMI and activated (2 hr, 37° C.) with the indicated concentrations of the peptides. The cells were then plated (1.5×10^6 cells/0.5 ml/well) in 24 wells plates (non-tissue culture grade) precoated with anti-CD3 mAb in order to stimulate the cells to secrete cytokines. After 24 hours, the supernatants were collected and their cytokine content (TNFα and IFNγ) was determined by ELISA using anti-IFNγ and anti TNFα mAb (Pharmingen; San Diego, Calif.) according to the manufacturer's instructions.

[5] = test system: anti-CD3 antibody induced IFNγ secretion from T cells; test: IFNγ secretion by anti-CD3 activated T cells; assay type: cell-based, human; design: concentration or dose not given beside the values; settings: 24 hours; ELISA; FIG. 7B
Experimental: as §1

[6] = test system: NF-κB; test: Nuclear translocation of NF-κB in T cells (Western blot); assay type: cell-based; settings: peptide 100 ng/ml for 2 hours, then anti-CD3 mAb 24 hr; human T cells
Text: To address the modulatory role of the wound fluid peptides on the signal transduction cascade leading to regulation of T-cell secretion of TNF-α(and IFN-γ, the nuclear translocation of NF-κB was detected by probing nuclear and cytoplasmic T-cell extracts using mAb specific for the p65 subunit of NF-κB. The nuclear protein Lamin B was used as continuatively expressed control protein for the quantification of protein amounts.
Human T cells. T cells were purified from the peripheral blood of healthy human donors (Blood Bank; Tel-Hashomer, Israel). The whole blood was incubated (20 min, 22° C.) with RosetteSep™ human T-cell enrichment cocktail (StemCell Technologies, Vancouver, BC, Canada). The remaining unsedimented cells were then loaded onto Lymphocyte Separation Medium (ICN Biomedicals; Belgium), isolated by density centrifugation, and washed with PBS. The purified cells (>95% CD3^+ T cells) so obtained were cultured in RPMI containing antibiotics and 10% heat-inactivated FCS. Western blot analysis of T-cell nuclear extracts. Purified T cells (5×10^6) were preincubated with the peptides (100 ng/ml) for 2 hours (37° C. in a 7% CO2, humidified atmosphere). The cells were then replated in 24-well plates pre-coated with anti-CD3 mAb for 24 hr (37° C. in a 7% CO2, humidified atmosphere). T cells were lysed in 10 mM HEPES, 1.5 mM MgCl2, 1 mM dithiothreitol (DTT), 1 mM PMSF, 0.5% Nonidet P-40. The lysates were incubated on ice for 10 min and centrifuged at 2000 rpm for 10 min at 4° C. The supernatants (cytoplasmic extracts) were transferred and the pellet (nuclei) was suspended in buffer containing 30 mM HEPES, 450 mM NaCl, 25% Glycerol, 0.5 mM EDTA, 6 mM DTT, 12 mM MgCl2 1 mM PMSF, 10 μg/ml leupeptin, 10 μg/ml pepstatin, 1% phosphatase inhibitor cocktail, and the suspension was incubated on ice for 30 min. The lysates were cleared by centrifugation (30 min, 14×10^3 rpm, 4° C.), and the resulting supernatants analyzed for protein content. […]

[7] = test system: BALB/C mice; test: Con A-induced hepatic injury (acute hepatitis model); assay type: in vivo; settings: 50 μg/mouse intraperitoneally, 2 or 3 injections before ConA, especially after 3 treatments; FIG. 10B
Experimental: Con A (13 mg/kg) was administered i.v. to BALB/c mice 18 hours before analysis (Bonder, C. S. et al. 2004. J. Immunol. 172: 45-53). Mice were intraperitoneally injected with the peptides of the invention 48 and 2 hours before ConA injection.
Blood analysis: 18 hours after Con A injection, blood was obtained by cardiac puncture for detection of serum alanine aminotransferase (ALT) and aspartate aminotransferase (AST). The presence of these two enzymes in serum is used as an index of hepatocellular injury. The detection of ALT and AST was performed by a commercial kit for ALT and AST (Bayer Diagnostics, Tarry town, NY, USA) using an automated Monarch Monoanalyzer 2000 (Allied, Lexington, Mass.).

Question: What does the source list for “LSALEEYTKKLNTQ [peptide No. 2, residues 254-267 of Apo A-I; identified in wound fluids, then synthesized]”?
Answer: inhibition of DTH response [1]: hardly inhibited; inhibition of T cell transmigration toward SDF-1α [2]: did not show a significant inhibition; inhibition of TNFα secretion by Jurkat and THP-1 cells compared to PMA/PHA alone [3]: 10%; inhibition of anti-CD3 antibody induced TNFα secretion from T cells [4]: 40%; inhibition of anti-CD3 antibody induced IFNγ secretion from T cells [5]: ~30%; NF-κB translocation to the nucleus [6]: significant down-regulation; resistance to ConA induced hepatitis [7]: marked resistance
